These results are taken from publication PMC11568248, “Targeting Candida albicans O-acetyl-L-homoserine sulfhydrylase (Met15p) in antifungal treatment” (Scientific Reports, 2024).

Data set [1] has as its target T1, CaMet15NHp (Candida albicans, UniProt Q59US5).
T1 construct: gene MET15; mostly homotetramer
T1 sequence (Q59US5 2-440): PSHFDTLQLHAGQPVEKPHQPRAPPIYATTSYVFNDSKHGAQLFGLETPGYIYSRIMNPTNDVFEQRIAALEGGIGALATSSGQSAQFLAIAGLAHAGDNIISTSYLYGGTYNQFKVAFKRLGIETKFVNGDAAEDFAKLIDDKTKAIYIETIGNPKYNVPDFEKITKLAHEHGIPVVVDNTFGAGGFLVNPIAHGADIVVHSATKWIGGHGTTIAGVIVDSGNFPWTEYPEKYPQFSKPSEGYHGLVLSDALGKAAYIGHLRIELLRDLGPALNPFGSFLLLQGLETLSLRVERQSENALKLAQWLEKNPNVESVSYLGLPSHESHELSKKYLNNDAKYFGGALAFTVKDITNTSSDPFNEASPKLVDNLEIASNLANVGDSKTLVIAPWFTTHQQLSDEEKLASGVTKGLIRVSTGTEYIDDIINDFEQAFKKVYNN
Nature of the data set: RP-HPLC-DAD of L-homocysteine derivatized with DTNB. It counts as biochemical. Conditions: substrates OAH and Na2S, 0.2 mM PLP, pH 8.0, 37 °C; racemate.

The next data set deals with S. Nature of the data set: purified protein. Conditions: O-acetyl-L-homoserine co-substrate, 0.2 mM PLP, 50 mM Tris-HCl pH 8.0, 100 mM NaCl, 37 °C, sulfide ion donor.
Data set [2] addresses T1, CaMet15NHp. Description: RP-HPLC-DAD of L-homocysteine derivatized with DTNB. Format: biochemical. As to conditions: read-out: % inhibition at 10 mM.
Substrate in the data set “purified protein”: CC(=O)OCC[C@H](N)C(=O)O
Description: purified protein. Conditions: Na2S co-substrate, 0.2 mM PLP, 50 mM Tris-HCl pH 8.0, 100 mM NaCl, 37 °C.

Regarding `CP(=O)(O)CCC(N)C(=O)O` (racemic) [DL-GLUF, DL-glufosinate], the “% inhibition at 10 mM” value at CaMet15NHp [1] was “DL-2-allyglycine (DL-ALG), and DL-glufosinate (DL-GLUF) were slightly inhibitory”.
As for CaMet15NHp (Candida albicans SC5314), the Km in the data set with S is reported as 0.027 ± 0.0021 mM.
Consider `CC(C)(S)[C@H](N)C(=O)O` [L-PEN, L-penicillamine], for which the inhibition at 10000 µM at CaMet15NHp [2] is over 50%.
The same measure, in the same setting: for `CC(=O)NCC[C@H](N)C(=O)O` [AcDAB, N[4]-acetyl-(S)−2,4-diaminobutanoic acid] the value was about 70%.
In the case of `CSCC[C@H](N)C(=O)O` [L-Met, L-methionine], the inhibition at 10000 µM on CaMet15NHp [2] is under 15%.
Take `N[C@@H](CCNC(=O)c1ccccc1)C(=O)O` [BzDAB, 3-benzamido-1-carboxypropan-1-aminium chloride]: on CaMet15NHp [2], the inhibition at 10000 µM was about 44%.
Regarding `C=CCC(N)C(=O)O` (racemic) [DL-ALG, DL-2-allylglycine], the “% inhibition at 10 mM” value on CaMet15NHp [1] is “DL-2-allyglycine (DL-ALG), and DL-glufosinate (DL-GLUF) were slightly inhibitory”.

B1: CaMet15NHp (Candida albicans SC5314) (protein)
chain: T1 sequence (Q59US5 2-440)
Consider B1, for which, in the data set “purified protein”, the Km was determined as 9.12 ± 1.77 mM.

The term Km denotes the concentration of substrate that gives half-maximal velocity. The inhibition is the percentage by which the read-out fell short of the control.
